Results reported in patent US9486502B2, “Methods of administering interferon gamma to absorb fluid from the subretinal space” (The United States of America, as represented by the …, priority 2008, dated 2016).
Structures can show the parent of a compound that is named as a salt.

Key:
Assay type in all cases: cell-based, human
hfRPE cells = assay: immunoblotting of JAK-STAT / MAP kinase signalling proteins in hfRPE; conditions: 4 hours
Method: Immunoblotting was performed as previously described in Li, R. et al., 2007, Invest Ophthalmol Vis Sci, 48, 5722-5732, incorporated by reference in its entirety herein. Primary cultures of hfRPE and native human adult RPE cells were lysed using RIPA buffer (Sigma-Aldrich) supplemented with proteinase inhibitor cocktail (Roche). Total protein in the supernatant was measured (BCA™ protein assay, Pierce Biotechnology) and 20 µg of protein from cell lysate supernatants was electrophoresed on a 4-12% gradient Bis-Tris NuPAGE gel (Invitrogen) under reduced or non-reduced conditions. Resolved proteins were transferred to nitrocellulose membranes (membranes and XCell II™ Blot Module, Invitrogen).
The membranes were incubated with mouse anti-human IFNγ R1 monoclonal antibody (R&D Systems), anti-human IFNγ R2 (Santa Cruz Biotechnology), anti-human IFNAR1, anti-human IFNAR2 (Abcam), anti-IRF1, anti-IRF2, anti-IRF8 (Santa Cruz Biotechnology) or anti-CFTR antibody 217 (Cystic Fibrosis Foundation Therapeutics Inc., Bethesda, Md.), after blocking non-specific binding ((StartingBlock™ T20 (TBS), Pierce Biotechnology). Membranes were then incubated with horseradish peroxidase (HRP) conjugated secondary antibody (Pierce Biotechnology) and visualized using Supersignal® West Dura Extended Duration Substrate (Pierce Biotechnology) and imaged using an Autochemie™ system (UVP, Upland, Calif.). The antibody-specific bands for IRF-1, IRF-2, ICSBP (IRF-8) and GAPDH were around 91 kDa, […], respectively.
For phosphorylation studies, cells were starved for 24 hours in serum-free medium (“SFM,” MEM-α modification medium containing non-essential amino acids and Glutamine-Penicillin-Streptomycin). Cells were treated with IFNγ (5-50 ng/ml) in SFM at various time points at 37° C. and lysed with RIPA buffer supplemented with proteinase inhibitor cocktail (Roche) and Halt™ phosphatase inhibitor cocktail (Pierce Biotechnology). 40 μg of protein was electrophoresed. As in the immunoblotting experiments described above, except that the membranes were incubated with anti-phospho-p38 MAP kinase (Thr180/Tyr182), anti-p38 MAP kinase, anti-phospho-Stat1 (Tyr701), anti-phospho-Stat1 (Ser727) or anti-Stat1 antibodies, respectively (each from Cell signaling Technology, Danvers, Mass.). The antibody-specific bands for STAT1/phospho-STAT1 (Tyr701) were around 84 kDa. GAPDH was blotted together with anti-GAPDH antibody (Abcam) and used as loading control. Cyclohexamide (“CHX”; Sigma-Aldrich), a protein synthesis inhibitor, was used at 62 μM.
For CFTR immunoblotting analysis, confluent monolayers of hfRPE were homogenized on ice in isolation solution (250 mM Sucrose, 10 mM Tris-HCl, 10 mM MgCl2, 1 mM CaCl2, pH 7.4) supplemented with Halt™ protease inhibitor cocktail, EDTA-free. Nuclei and intact cells were removed with centrifugation (900×g for 10 minutes at 4° C., followed by centrifugation at 10,000×g for 5 minutes). Crude plasma membrane proteins were collected after centrifugation at 100,000×g for 1 hour at 4° C.

hfRPE monolayers [1] = assay: fluid transport (JV, TEP, RT) across hfRPE monolayers in modified Üssing chamber; conditions: for effect on JV after P38 MAPK inhibitor: CFTR inhibitor added to basal bath after P38 MAPK inhibitor
Excerpt: Confluent monolayers of hfRPE cultured on transwells were mounted in a modified Üssing chamber and transepithelial water flow measurements (JV) were made with a capacitance probe technique as described previously in Maminishkis, A., et al., Invest Ophthalmol Vis Sci, 2006, 47, 3612-3624; Shi, G., et al., Invest Ophthalmol Vis Sci, 2008, 49, 4620-4630; Edelman, J. L., et al., Invest Ophthalmol Vis Sci, 1991, 32, 3033-3040; Jiang, C., et al., Science, 1993, 262, 424-427; and Maminishkis, A., et al., Invest Ophthalmol Vis Sci, 2002, 43, 3555-3566, each incorporated herein by reference in its entirety.
Tissue viability was ascertained by recording transepithelial potential (TEP) and total tissue resistance (RT). It should be noted that the solution composition changes in this chamber were relatively slow (≈1-2 chamber volumes per minute) and the data sampling rate was once per minute, more than two orders of magnitude slower than the sampling rate in the electrophysiology chamber (see below). Therefore it was not possible to record fast changes, in seconds or minutes, in JV, TEP, or RT. After addition of IFNγ to the apical or basal baths, steady-state JV, TEP, and RT were recorded for 20-30 minutes. In control experiments, successive additions of IFNγ were made to test for the repeatability and reversibility of responses. To block IFNγ effects, RPE cells were incubated for 30-60 minutes with a blocking antibody against IFNγ R1, JAK inhibitor I, PKA inhibitors (H-89, EMD Biosciences; RP-8-Br-cAMPS, Sigma-Aldrich), nitric oxide synthase inhibitor (aminoguanidine hydrochloride, Sigma-Aldrich), P38 MAPK inhibitors (SB203580 or SB20290), or CHX. Other components of this signaling pathway were studied using P38 MAPK inhibitors (SB203580 and SB202190). Relatively specific Cl channel inhibitors, CFTRinh-172 or DIDS (EMD Biosciences, La Jolla, Calif.), were used to block cAMP or Ca^2+-activated Cl channels; experiments with CFTRinh-172 were performed as described in Muanprasat, C., et al., J Gen Physiol, 2004, 124, 125-137, incorporated herein by reference in its entirety. In chronic experiments, paired hfRPE tissues with matched RT values were incubated for 4-24 hours with IFNγ or CHX. The subsequent changes in JV, RT, and TEP were measured in Ringer's solution or serum free cell culture media as previously described in Shi, G., et al., Invest Ophthalmol Vis Sci, 2008 and Maminishkis, A., et al., Invest Ophthalmol Vis Sci, 2006, 47, 3612-3624, each incorporated herein by reference in its entirety. Intracellular levels of NO were elevated with 1-Hydroxy-2-oxo-3-(3-aminopropyl)-3-isopropyl-1-triazene (NOC-5, Enzo Life Sciences, Plymouth, Pa.). 8-Br-cGMP was purchased from Sigma-Aldrich.

hfRPE monolayers [2] = assay: electrophysiology of hfRPE monolayers (TEP, RT, VA, VB, RA/RB)
Excerpt: Equivalent circuit analysis and electrophysiological methods have been previously described in Quinn, R. H., et al., Invest Ophthalmol Vis Sci, 1992, 33, 3513-3527; Joseph D. P., et al., J Physiol, 1991, 435, 439-463; and Maminishkis, A., et al., 2006, Ophthalmol Vis Sci, 47, 3612-3624each incorporated herein by reference in its entirety.
Briefly, confluent monolayers of cultured hfRPE were mounted on a nylon mesh support and clamped into a modified Üssing chamber that allowed the rapid exchange of Ringer's solution (≈10 chamber volumes per minute) and the measurement of fast electrical changes in seconds. The electrical connections to the apical and basal chambers were made with Ringer-agar bridges in series with calomel electrodes. Intracellular potentials were recorded with conventional microelectrodes, back-filled with 150 mM KCl, with resistances of 80 to 200 Ma The apical and basolateral membrane potentials (VA and VB) are calculated as the voltage differences between the intracellular microelectrode and the apical and basal bath electrodes, respectively. The resistances of the apical and basolateral membranes were designated RA and RB, respectively, and the transepithelial potential (TEP=VB-VA) is the voltage difference between the apical and basal bath electrodes. Epithelial resistance parameters were obtained by passing 4-μA bipolar current pulses (i) using Ag—AgCl electrodes, one located in the apical chamber and the other located in the basal chamber. The total transepithelial resistance (Rt) is calculated from the current-induced changes in TEP (Rt=ΔTEP/i). The apparent membrane resistance ratio (RA/RB) is calculated from the ratio of change in VA to change in VB (RA/RB=ΔVA/ΔVB).
The control Ringer's solution for measurements of TEP and Rt in culture hfRPE contained 116 mM NaCl, 5 mM KCl, 26.2 mM NaHCO3, 1 mM NaH2PO4, 1 mM Mg Cl2, 1.8 mM CaCl2, 10 mM glucose, and 2 mM Taurine. The osmolarity of control Ringer's solution was 295 mOsm. The solutions were maintained at 35° C. and a pH of 7.4, and were bubbled with 10% O2, 5% CO2 and 85% N2. 8-Bromo-cAMP (or Dibutyryl cAMP), 8-Br-cGMP, and forskolin were obtained from Sigma-Aldrich.

[3] = SB203580 pretreatment ≧30 minutes, n=6
[4] = H-89 40 μM pre-treatment 30 minutes
[5] = CFTRinh−172 basal bath after IFNγ

## C[C@@H]1C[C@@H]([C@H](O)CC2CC(=O)NC(=O)C2)C(=O)[C@@H](C)C1 [CHX, cycloheximide]
hfRPE cells; CHX 62 μM, with IFNγ
  effect on IRF-2 protein: no effect
  effect on de novo synthesis of IRF-1: completely blocked
hfRPE cells; cycloheximide with IFNγ
  effect on STAT1 synthesis: partly inhibited
hfRPE monolayers [1]; 62 μM, apical and basal, 30 minutes
  effect of CHX per se on JV: no apparent change
hfRPE monolayers [1]; 4 hours of pre-treatment with CHX
  IFNγ-induced JV increase after CHX pre-treatment: no IFNγ-induced JV increase
hfRPE monolayers [1]; CHX 62 μM 30 minutes
  effect on ability of CFTRinh−172 to block IFNγ-induced JV increase: did not affect
hfRPE monolayers [1]; CHX 62 μM 30 minutes before IFNγ 5 ng/ml
  effect on IFNγ-induced increase in JV: no effect
hfRPE monolayers [1]; IFNγ 5 ng/ml + CHX 62 μM, 24 hours, IFNγ alone 15.9, FIG. 14I
  JV after IFNγ and CHX: 8.8 μl·cm^−2·hr^−1
hfRPE monolayers [1]; another experiment, IFNγ alone 14.9
  JV after IFNγ and CHX: 9.8 μl·cm^−2·hr^−1

## Nc1nc2c(nc(Br)n2[C@@H]2O[C@@H]3COP(=O)(O)O[C@H]3[C@H]2O)c(=O)[nH]1 [8-Br-cGMP]
hfRPE monolayers [1]; 100 μM both baths, FIG. 21, from 6.0
  JV after 8-Br-cGMP: 19.5 μl·cm^−2·hr^−1
hfRPE monolayers [1]; four experiments, from 7.4±1.1
  Jv after 8-Br-cGMP: 15.8±1.6 μl·cm^−2·hr^−1

## CC(C)N(CCCN)[N+]([O-])=NO [NOC-5, 1-Hydroxy-2-oxo-3-(3-aminopropyl)-3-isopropyl-1-triazene]
hfRPE monolayers [1]; NOC-5 apical and basal baths, n=3
  effect on JV: more than doubled

## C[S+]([O-])c1ccc(-c2nc(-c3ccncc3)c(-c3ccc(F)cc3)[nH]2)cc1 (stereo not drawn) [SB203580]
hfRPE monolayers [1]; SB203580 5 μM
  decrease of IFNγ-induced JV: approximately 62%
hfRPE monolayers [1]; SB 203580 5 μM apical and basal after IFNγ 5 ng/mL, n=9
  effect on IFNγ induced JV: decreased
hfRPE monolayers [1]; SB203580, n=3
  effect on JV following inhibition by basal bath CFTRinh−172: no further effect
hfRPE monolayers [1]; [3]
  effect on baseline level of JV: no significant effect
  effect on the effect of IFNγ: completely blocked

## Oc1ccc(-c2nc(-c3ccncc3)c(-c3ccc(F)cc3)[nH]2)cc1 [SB202190]
hfRPE monolayers [1]; SB202190 1-5 μM
  block of IFNγ stimulated fluid transport: approximately 46%

## O=S(=O)(NCCNC/C=C/c1ccc(Br)cc1)c1cccc2cnccc12 [H-89]
hfRPE monolayers [1]; H-89 40 μM after IFNγ
  effect on IFNγ stimulated JV increase: significantly blocked
hfRPE monolayers [1]; H-89 40 μM both sides, from 20.1±0.2
  JV after H-89 added to IFNγ-stimulated hfRPE: 8.3±1.3 μl·cm^−2·hr^−1
hfRPE monolayers [1]; [4]
  effect on baseline level of JV: no significant effect
  effect on the effect of IFNγ: completely blocked
hfRPE monolayers [1]; four experiments, steady-state baseline 12.8±5.2
  JV after H-89: 12.9±3.7 μl·cm^−2·hr^−1

## O=S(=O)(O)c1cc(N=C=S)ccc1C=Cc1ccc(N=C=S)cc1S(=O)(=O)O [DIDS]
hfRPE monolayers [1]; DIDS 500 μM, n=2
  effect on spontaneous steady-state JV: no effect
hfRPE monolayers [1]; DIDS, n=2
  effect on JV following CFTRinh−172 inhibition of IFNγ-induced JV: no further inhibition
hfRPE monolayers [1]; basal DIDS
  effect on IFNγ-induced JV increase: not affected

## O=C(O)c1ccc(/C=C2\SC(=S)N(c3cccc(C(F)(F)F)c3)C2=O)cc1 [CFTRinh−172]
hfRPE monolayers [2]; CFTRinh−172
  effect on cAMP-induced electrical changes: blocked
hfRPE monolayers [2]; [5]
  effect on RA/RB: slight decrease
  effect on RT: increased
  effect on TEP: decreased
  effect on both membrane potentials: hyperpolarize
hfRPE monolayers [1]; CFTR inhibitor 5 μM basal bath, NOC-5 250 μM, n=3
  effect on NOC-5 induced increase in Jv: blocked
hfRPE monolayers [1]; CFTR inhibitor added after H-89
  effect on IFNγ-induced fluid transport after H-89: no further effect
hfRPE monolayers [1]
  effect on JV after P38 MAPK inhibitor: further decrease
hfRPE monolayers [1]; listed as CFTR inhibitor
  effect on JV after P38 MAPK inhibitor: further decreased
hfRPE monolayers [1]; CFTRinh−172 5 μM basal bath, FIG. 14E
  decrease of the IFNγ-induced JV increase: ≈ 9.8 μl·cm^−2·hr^−1
hfRPE monolayers [1]; CFTRinh−172 5 μM, 11 experiments, from 16.6±1.2
  mean JV after inhibitor in IFNγ-treated hfRPE: 6.8±1.0 μl·cm^−2·hr^−1
hfRPE monolayers [1]; CFTRinh−172 5 μM, from 15.1, FIG. 14F
  JV after inhibitor in 24 hour IFNγ-treated hfRPE: 4.8 μl·cm^−2·hr^−1
hfRPE monolayers [1]; CFTRinh−172 added after IFNγ and basal DIDS, n=1
  decrease in JV: 12.6 μl·cm^−2·hr^−1
hfRPE monolayers [1]; CFTRinh−172 basal bath, no IFNγ, baseline 12.5 ±3.1, n=5
  baseline JV after inhibitor: 3.2 ±1.0 μl·cm^−2·hr^−1
hfRPE monolayers [1]; FIG. 21, from 19.5
  Jv after CFTR inhibitor in 8-Br-cGMP-treated hfRPE: 11.5 μl·cm^−2·hr^−1
hfRPE monolayers [1]; four experiments, from 15.8±1.6
  Jv after CFTR inhibitor in 8-Br-cGMP-treated hfRPE: 8.9±1.3 μl·cm^−2·hr^−1

## N=C(N)NN [aminoguanidine hydrochloride]
hfRPE monolayers [1]; iNOS inhibitor 100 μM applied after IFNγ 5 ng/ml, n=3, hydrochloride
  effect on IFNγ induced increase in Jv: blocks
hfRPE monolayers [1]; iNOS inhibitor 100 μM applied after IFNγ 5 ng/ml, n=3, listed as aminoguandidie hydrochloride, hydrochloride
  effect on IFNγ induced increase in Jv: block
hfRPE monolayers [1]; pre-treatment with iNOS inhibitor, n=3
  effect on IFNγ induced increase in Jv: completely blocked
